Earlier results in patent US20220168251A1, “PROCESS FOR PRODUCTION OF A NANO-MICROEMULSION SYSTEM OF FERULIC” (priority 2020, published 2022).

System: hypertensive rats
Conditions: 8 weeks of treatment

SMILES: COc1cc(/C=C/C(=O)O)ccc1O [ferulic acid, Ferulic acid]
- blood flow to kidney: improvement
- left ventricular stiffness in heart: decrease
- systolic blood pressure: significant decrease
